According to patent US7074789B2, “Kinase inhibitors” (Amgen Inc., priority 1999, dated 2006):

What was measured:
Format in all cases: biochemical
[1] = target: T1, ErbB2 (Homo sapiens, UniProt P04626); assay: Kinase inhibition assay (33P transfer), ErbB2; conditions: read-out: ErbB2-2
T1 construct: Kinases are expressed as either kinase domains or full length constructs; made in house
Method in brief: (§1)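 Using immobilised substrate copolymers (poly(Glu,Tyr) 4:1; poly(Arg,Ser) 3:1) and [33P]ATP, purified fusion kinases were allowed to react; plates were then rinsed in 0.5% phosphoric acid and counted in a scintillation detector. Half-maximal inhibition of label transfer defines IC50.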

[2] = target: T2, Src (Homo sapiens, UniProt P12931); assay: Kinase inhibition assay (33P transfer), Src; conditions: Table 6, Src-1 kinase inhibition class
T2 construct: Kinases are expressed as either kinase domains or full length constructs; made in house
Method in brief: as §1

[3] = target: T3, Hck-1 (Homo sapiens, UniProt P08631); assay: Kinase inhibition assay (33P transfer), Hck; conditions: Table 6, Hck-1 kinase inhibition class
T3 construct: Kinases are expressed as either kinase domains or full length constructs; made in house

[4] = target: T4, Kdr (Homo sapiens, UniProt P35968); assay: Kinase inhibition assay (33P transfer), Kdr; conditions: Table 3; read-out: KDR-1
T4 construct: Kinases are expressed as either kinase domains or full length constructs; made in house
Method in brief: (§2)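 Enzyme activity is taken as the amount of 33PO4 moved from ATP onto poly(Glu, Tyr) 4:1 or poly(Arg, Ser) 3:1 fixed to the plate surface. Unbound label is removed with 0.5% phosphoric acid before scintillation counting.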

[5] = target: T5, Itk (Homo sapiens, UniProt Q08881); assay: Kinase inhibition assay (33P transfer), Itk; conditions: Table 3; read-out: Itk-1
T5 construct: Kinases are expressed as either kinase domains or full length constructs; made in house
T5 sequence (Q08881 1-620): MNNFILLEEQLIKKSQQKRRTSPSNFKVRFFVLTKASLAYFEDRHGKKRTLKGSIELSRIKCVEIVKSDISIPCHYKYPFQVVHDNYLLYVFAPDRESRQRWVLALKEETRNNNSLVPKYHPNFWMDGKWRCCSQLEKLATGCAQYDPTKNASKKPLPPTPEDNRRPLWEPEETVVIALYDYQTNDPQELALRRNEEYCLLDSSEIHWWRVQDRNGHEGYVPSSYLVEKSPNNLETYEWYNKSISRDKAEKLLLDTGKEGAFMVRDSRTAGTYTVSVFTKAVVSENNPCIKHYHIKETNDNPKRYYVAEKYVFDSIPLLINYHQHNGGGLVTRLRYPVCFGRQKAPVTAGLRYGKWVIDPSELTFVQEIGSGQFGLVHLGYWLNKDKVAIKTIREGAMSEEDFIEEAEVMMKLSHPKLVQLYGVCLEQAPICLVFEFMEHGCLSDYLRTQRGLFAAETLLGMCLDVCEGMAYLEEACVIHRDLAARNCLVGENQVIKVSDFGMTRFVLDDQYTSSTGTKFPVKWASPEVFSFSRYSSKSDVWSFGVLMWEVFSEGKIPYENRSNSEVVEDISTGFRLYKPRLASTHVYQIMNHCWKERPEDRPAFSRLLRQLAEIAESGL
Method in brief: as §1

[6] = target: T6, PDGFRB (Homo sapiens, UniProt P09619); assay: Kinase inhibition assay (33P transfer), PDGFRB; conditions: read-out: PDGFRB-1
T6 construct: Kinases are expressed as either kinase domains or full length constructs; made in house

[7] = target: T7, Zap-70 (Homo sapiens, UniProt P43403); assay: Kinase inhibition assay (33P transfer), Zap-70; conditions: Table 3; read-out: Zap-1
T7 construct: Kinases are expressed as either kinase domains or full length constructs; made in house
T7 sequence (P43403 1-619): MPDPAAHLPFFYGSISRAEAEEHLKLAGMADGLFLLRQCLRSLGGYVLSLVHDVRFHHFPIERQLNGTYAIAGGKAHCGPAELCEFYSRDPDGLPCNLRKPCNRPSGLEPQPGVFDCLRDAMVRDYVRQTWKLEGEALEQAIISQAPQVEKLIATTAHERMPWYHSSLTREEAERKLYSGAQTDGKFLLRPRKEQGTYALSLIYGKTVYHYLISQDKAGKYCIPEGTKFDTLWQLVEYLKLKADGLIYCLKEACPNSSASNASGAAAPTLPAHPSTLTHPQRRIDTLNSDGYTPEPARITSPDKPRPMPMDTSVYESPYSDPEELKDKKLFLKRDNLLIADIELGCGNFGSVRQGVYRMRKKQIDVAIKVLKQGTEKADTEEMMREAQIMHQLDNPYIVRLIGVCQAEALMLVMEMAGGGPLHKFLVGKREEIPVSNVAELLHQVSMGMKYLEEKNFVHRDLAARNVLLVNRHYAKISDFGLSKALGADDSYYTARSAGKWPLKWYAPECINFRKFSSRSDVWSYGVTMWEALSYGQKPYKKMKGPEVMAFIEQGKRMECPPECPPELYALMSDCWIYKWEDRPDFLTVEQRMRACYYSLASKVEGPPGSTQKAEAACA
Method in brief: as §2

T6 sequence (P09619 33-1106, species assumed): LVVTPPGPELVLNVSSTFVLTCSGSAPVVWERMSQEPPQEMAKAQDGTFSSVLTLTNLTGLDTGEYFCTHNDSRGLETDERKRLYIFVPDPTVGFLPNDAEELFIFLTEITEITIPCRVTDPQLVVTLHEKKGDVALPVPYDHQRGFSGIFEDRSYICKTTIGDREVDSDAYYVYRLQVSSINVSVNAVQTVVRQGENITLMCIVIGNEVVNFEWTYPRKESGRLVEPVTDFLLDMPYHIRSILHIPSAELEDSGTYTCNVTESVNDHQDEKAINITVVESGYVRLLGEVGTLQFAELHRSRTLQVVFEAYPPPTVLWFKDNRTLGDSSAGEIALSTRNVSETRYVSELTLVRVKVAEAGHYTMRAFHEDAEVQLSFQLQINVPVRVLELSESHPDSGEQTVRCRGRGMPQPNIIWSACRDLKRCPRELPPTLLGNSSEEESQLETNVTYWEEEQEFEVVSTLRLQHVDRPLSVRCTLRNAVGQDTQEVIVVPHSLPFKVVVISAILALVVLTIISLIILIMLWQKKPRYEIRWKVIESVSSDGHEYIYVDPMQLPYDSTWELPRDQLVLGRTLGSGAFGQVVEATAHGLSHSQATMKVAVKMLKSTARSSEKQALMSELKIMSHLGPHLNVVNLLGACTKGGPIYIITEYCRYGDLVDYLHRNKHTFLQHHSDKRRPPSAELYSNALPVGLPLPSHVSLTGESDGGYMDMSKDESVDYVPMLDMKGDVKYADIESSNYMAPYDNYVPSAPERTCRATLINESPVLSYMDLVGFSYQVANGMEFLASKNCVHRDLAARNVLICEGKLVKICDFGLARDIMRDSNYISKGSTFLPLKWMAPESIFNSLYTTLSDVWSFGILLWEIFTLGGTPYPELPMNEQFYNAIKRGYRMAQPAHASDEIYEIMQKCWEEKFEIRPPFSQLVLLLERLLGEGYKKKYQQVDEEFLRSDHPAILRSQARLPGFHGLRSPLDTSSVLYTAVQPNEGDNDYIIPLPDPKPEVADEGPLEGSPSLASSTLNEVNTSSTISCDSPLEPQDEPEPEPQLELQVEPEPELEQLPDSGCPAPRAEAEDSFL
T3 sequence (P08631 whole entry, the tested form may be a part): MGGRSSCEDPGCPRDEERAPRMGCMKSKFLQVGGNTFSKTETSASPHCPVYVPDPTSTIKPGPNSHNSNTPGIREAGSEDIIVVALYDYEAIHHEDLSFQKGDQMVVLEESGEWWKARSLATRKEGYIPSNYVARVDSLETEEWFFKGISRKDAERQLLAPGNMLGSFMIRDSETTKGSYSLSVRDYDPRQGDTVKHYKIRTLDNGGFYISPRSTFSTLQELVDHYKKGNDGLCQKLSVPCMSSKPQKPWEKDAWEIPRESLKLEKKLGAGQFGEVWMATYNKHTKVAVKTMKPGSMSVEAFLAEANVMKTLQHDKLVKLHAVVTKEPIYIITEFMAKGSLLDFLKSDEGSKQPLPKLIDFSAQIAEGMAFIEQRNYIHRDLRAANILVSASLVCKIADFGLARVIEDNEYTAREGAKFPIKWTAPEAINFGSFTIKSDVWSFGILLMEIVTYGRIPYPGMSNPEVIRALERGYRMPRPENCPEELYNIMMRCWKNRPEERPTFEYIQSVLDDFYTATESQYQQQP
T2 sequence (P12931 whole entry, species assumed, the tested form may be a part): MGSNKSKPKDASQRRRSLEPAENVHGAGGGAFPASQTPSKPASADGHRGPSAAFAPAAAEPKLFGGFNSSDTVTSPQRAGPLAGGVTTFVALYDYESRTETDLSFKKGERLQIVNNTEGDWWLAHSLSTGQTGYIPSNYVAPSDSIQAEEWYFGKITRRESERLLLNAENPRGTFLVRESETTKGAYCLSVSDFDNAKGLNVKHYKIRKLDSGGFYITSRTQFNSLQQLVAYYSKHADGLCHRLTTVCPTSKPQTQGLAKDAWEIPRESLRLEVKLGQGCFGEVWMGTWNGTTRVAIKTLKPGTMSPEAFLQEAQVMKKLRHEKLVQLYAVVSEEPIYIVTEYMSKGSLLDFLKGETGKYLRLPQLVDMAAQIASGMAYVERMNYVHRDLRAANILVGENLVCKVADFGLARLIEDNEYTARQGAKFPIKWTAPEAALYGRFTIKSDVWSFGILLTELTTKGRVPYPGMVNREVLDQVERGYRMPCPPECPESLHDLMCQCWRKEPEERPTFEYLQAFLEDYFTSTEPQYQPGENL
T4 sequence (P35968 20-1356, species assumed): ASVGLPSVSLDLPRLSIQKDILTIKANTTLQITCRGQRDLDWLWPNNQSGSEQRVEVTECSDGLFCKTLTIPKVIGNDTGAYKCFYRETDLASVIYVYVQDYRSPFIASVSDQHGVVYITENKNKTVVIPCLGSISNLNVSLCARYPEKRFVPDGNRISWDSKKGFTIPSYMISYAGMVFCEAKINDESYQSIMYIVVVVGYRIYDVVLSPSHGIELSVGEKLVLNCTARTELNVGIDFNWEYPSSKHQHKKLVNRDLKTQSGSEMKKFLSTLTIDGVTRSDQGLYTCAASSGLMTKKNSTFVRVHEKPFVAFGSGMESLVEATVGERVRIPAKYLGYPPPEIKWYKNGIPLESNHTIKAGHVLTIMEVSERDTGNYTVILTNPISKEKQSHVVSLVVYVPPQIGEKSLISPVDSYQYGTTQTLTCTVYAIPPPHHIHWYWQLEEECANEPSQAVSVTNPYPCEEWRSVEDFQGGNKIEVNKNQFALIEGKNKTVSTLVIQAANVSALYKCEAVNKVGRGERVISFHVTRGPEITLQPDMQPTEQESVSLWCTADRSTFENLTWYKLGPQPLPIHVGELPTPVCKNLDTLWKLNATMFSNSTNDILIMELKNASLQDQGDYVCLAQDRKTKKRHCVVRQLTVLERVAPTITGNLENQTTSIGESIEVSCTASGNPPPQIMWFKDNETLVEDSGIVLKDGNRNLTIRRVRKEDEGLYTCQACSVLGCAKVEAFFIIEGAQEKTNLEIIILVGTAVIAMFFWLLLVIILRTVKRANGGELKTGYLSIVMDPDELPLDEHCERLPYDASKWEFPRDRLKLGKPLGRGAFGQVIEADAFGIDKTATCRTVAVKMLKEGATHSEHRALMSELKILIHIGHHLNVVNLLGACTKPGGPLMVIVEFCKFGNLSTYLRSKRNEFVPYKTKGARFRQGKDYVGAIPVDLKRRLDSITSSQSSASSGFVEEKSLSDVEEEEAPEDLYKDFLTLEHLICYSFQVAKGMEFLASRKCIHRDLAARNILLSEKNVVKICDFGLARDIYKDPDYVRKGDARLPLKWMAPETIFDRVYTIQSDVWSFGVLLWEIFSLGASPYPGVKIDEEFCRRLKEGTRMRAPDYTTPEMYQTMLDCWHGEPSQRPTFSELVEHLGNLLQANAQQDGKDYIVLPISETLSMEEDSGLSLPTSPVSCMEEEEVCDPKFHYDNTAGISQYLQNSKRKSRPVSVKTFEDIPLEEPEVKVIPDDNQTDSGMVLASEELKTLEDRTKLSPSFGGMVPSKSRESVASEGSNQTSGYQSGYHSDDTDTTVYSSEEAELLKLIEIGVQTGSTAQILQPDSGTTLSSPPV
T1 sequence (P04626 23-1255, species assumed): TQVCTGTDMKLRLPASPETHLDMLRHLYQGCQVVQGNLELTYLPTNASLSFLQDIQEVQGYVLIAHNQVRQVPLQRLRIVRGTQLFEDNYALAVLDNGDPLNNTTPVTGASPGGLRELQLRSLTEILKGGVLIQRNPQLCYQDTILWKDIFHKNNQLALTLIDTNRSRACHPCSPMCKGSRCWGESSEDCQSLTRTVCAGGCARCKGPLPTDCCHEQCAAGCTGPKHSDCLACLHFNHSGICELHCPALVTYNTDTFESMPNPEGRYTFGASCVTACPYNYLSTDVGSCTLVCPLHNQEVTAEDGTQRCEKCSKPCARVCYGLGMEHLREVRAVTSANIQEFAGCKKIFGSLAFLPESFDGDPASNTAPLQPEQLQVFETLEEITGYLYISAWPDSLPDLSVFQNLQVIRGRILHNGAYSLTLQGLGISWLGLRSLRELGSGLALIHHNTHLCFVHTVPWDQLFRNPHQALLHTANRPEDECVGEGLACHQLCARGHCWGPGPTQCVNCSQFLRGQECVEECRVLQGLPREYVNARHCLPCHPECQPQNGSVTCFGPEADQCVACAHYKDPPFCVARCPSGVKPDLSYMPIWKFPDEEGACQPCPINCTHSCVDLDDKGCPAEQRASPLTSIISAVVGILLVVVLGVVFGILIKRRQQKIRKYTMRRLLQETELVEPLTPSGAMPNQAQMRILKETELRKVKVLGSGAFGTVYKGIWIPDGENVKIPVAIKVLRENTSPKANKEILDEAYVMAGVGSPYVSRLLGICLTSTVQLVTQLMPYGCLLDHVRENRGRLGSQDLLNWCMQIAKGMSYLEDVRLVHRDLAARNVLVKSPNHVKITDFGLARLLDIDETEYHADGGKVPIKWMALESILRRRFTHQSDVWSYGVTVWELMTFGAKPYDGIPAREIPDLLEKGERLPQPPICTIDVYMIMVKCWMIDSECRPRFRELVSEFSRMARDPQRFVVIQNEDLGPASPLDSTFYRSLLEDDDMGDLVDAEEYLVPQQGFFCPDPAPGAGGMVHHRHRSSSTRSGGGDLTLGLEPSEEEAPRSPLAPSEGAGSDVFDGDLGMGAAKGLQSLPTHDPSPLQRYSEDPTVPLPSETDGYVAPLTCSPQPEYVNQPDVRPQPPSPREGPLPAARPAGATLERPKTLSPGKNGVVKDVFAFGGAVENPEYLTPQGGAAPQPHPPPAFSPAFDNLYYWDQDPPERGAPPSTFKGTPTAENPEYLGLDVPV

SMILES | IC50 [1] [µM] | IC50 [2] [µM] | IC50 [3] [µM] | IC50 [4] [µM] | IC50 [5] [µM] | IC50 [6] [µM] | IC50 [7] [µM]
COc1cc(Nc2ncnc(Nc3ccc(OCc4ccccc4)cc3)n2)cc(OC)c1 [Compound 156] | 0.931 to 5.59 | > 10.5 | > 10.5 | 5.59 to 8.15 | > 10.5 | 8.15 to 10.5 | > 10.5
COc1cc(Nc2ncnc(-n3ccc4ccccc43)n2)cc(OC)c1OC [Compound 185] | > 11.9 | > 11.9 | > 11.9 | < 1.06 | > 11.9 | < 1.06 | > 11.9
COc1ccc(Nc2ncnc(Nc3cc(OC)c(OC)c(OC)c3)n2)cc1O [Compound 931] | 1 to 6.01 | < 1 | 1 to 6.01 | < 1 | > 11.3 | < 1 | > 11.3
Cc1cccc(Nc2ncnc(Nc3ccc4[nH]ncc4c3)n2)c1 [Compound 120] | 1.26 to 7.56 | 1.26 to 7.56 | 1.26 to 7.56 | 1.26 to 7.56 | 7.56 to 11 | < 1.26 | 11 to 14.2
COc1cc(Nc2ncnc(Nc3ccc4c(ccn4Cc4ccccc4)c3)n2)cc(OC)c1OC [Compound 178] | < 0.829 | 0.829 to 4.97 | > 9.33 | 0.829 to 4.97 | > 9.33 | 4.97 to 7.25 | 0.829 to 4.97
COc1cc(Nc2ncnc(Nc3cccc(F)c3)n2)cc(OC)c1OC [Compound 304] | 1.08 to 6.46 | < 1.08 | 6.46 to 9.42 | < 1.08 | 9.42 to 12.1 | < 1.08 | > 12.1
COc1cc(Nc2ncnc(Nc3ccc(C)cc3)n2)cc(OC)c1OC [Compound 930] | 1.09 to 6.53 | < 1.09 | 6.53 to 9.53 | < 1.09 | > 12.2 | < 1.09 | > 12.2
COc1ccc(Nc2ncnc(-n3c(N)nc4ccccc43)n2)cc1OC [Compound 285] | > 12.4 | > 12.4 | > 12.4 | < 1.1 | > 12.4 | > 12.4 | > 12.4
Cc1cccc(Nc2ncnc(Nc3ccc4[nH]ccc4c3)n2)c1 [Compound 110] | < 1.26 | < 1.26 | 7.59 to 11.1 | < 1.26 | 7.59 to 11.1 | < 1.26 | > 14.2
COc1ccc(Nc2ncnc(Nc3cc(-c4ccco4)n[nH]3)n2)cc1OC [Compound 337] | – | 1.05 to 6.33 | > 11.9 | < 1.05 | 1.05 to 6.33 | 1.05 to 6.33 | > 11.9
COc1ccc2c(ccn2-c2ncnc(Nc3cc(OC)c(OC)c(OC)c3)n2)c1 [Compound 196] | – | > 11 | > 11 | < 0.982 | > 11 | < 0.982 | > 11
COc1cc(Nc2ncnc(Nc3cc(-c4ccco4)n[nH]3)n2)cc(OC)c1OC [Compound 308] | – | < 0.977 | 0.977 to 5.86 | < 0.977 | 0.977 to 5.86 | < 0.977 | > 11
COc1ccc(Nc2ncnc(Nc3cc(OC)c(OC)c(OC)c3)n2)cc1OC [Compound 36] | – | > 10.9 | > 10.9 | < 0.968 | > 10.9 | < 0.968 | > 10.9
COc1cc(Nc2ncnc(Nc3ccc4c(c3)OCO4)n2)cc(OC)c1OC [Compound 252] | – | < 1.01 | > 11.3 | < 1.01 | 6.04 to 8.81 | 1.01 to 6.04 | > 11.3
COCCOc1ccc(Nc2ncnc(Nc3cc(-c4ccco4)n[nH]3)n2)cc1OCCOC [Compound 328] | – | 0.856 to 5.13 | 5.13 to 7.49 | < 0.856 | 0.856 to 5.13 | 0.856 to 5.13 | > 9.63
COc1cc(Nc2ncnc(-n3c(N)nc4ccccc43)n2)ccc1OCCn1ccnn1 [Compound 324] | – | > 10.1 | > 10.1 | < 0.9 | 0.9 to 5.4 | > 10.1 | > 10.1
COc1cc(Nc2ncnc(Nc3ccc(Br)cc3F)n2)cc(OC)c1OC [Compound 41] | – | 0.888 to 5.33 | > 9.99 | < 0.888 | 7.77 to 9.99 | 0.888 to 5.33 | > 9.99
COc1ccc(Nc2ncnc(Nc3ccc(C)c(O)c3)n2)cc1OC [Compound 119] | – | 1.13 to 6.79 | > 12.7 | < 1.13 | 9.9 to 12.7 | < 1.13 | > 12.7
COc1ccc(Nc2ncnc(Nc3ccc4[nH]ccc4c3)n2)cc1OC [Compound 115] | – | 6.62 to 9.66 | > 12.4 | 1.1 to 6.62 | 9.66 to 12.4 | > 12.4 | > 12.4
COc1cc(Nc2ncnc(Nc3ccc(C)c(NS(C)(=O)=O)c3)n2)cc(OC)c1OC [Compound 305] | – | < 0.869 | 5.21 to 7.6 | < 0.869 | > 9.77 | < 0.869 | > 9.77
COc1cc(Nc2ncnc(Nc3cc(C(C)(C)C)[nH]n3)n2)cc(OC)c1OC [Compound 313] | – | < 1 | 6.01 to 8.76 | 1 to 6.01 | 6.01 to 8.76 | 1 to 6.01 | > 11.3
C#Cc1cccc(Nc2ncnc(Nc3ccc(OC)c(OC)c3)n2)c1 [Compound 116] | – | > 13 | > 13 | 6.91 to 10.1 | > 13 | > 13 | > 13
COc1cc(Nc2ncnc(Nc3nc4ccccc4n3C)n2)cc(OC)c1OC [Compound 938] | – | > 11 | > 11 | < 0.982 | > 11 | 0.982 to 5.89 | > 11
COCCOc1cc(Nc2ncnc(Nc3ccc(C)c(O)c3)n2)ccc1OC [Compound 127] | – | < 1.01 | 1.01 to 6.04 | < 1.01 | > 11.3 | < 1.01 | > 11.3
COc1cc(Nc2ncnc(Nc3ccc(Cl)cc3F)n2)cc(OC)c1OC [Compound 306] | – | 0.986 to 5.91 | 8.62 to 11.1 | < 0.986 | > 11.1 | < 0.986 | > 11.1
COCCOc1ccc(Nc2ncnc(-n3c(N)nc4ccccc43)n2)cc1OC [Compound 287] | – | > 11 | > 11 | < 0.982 | 5.89 to 8.59 | > 11 | > 11
COc1cc(Nc2ncnc(Nc3ccc(C)c(N)c3)n2)cc(OC)c1OC [Compound 935] | – | < 1.05 | 6.28 to 9.15 | < 1.05 | 6.28 to 9.15 | < 1.05 | > 11.8
COc1cc(Nc2ncnc(N3CCc4cc([N+](=O)[O-])ccc43)n2)cc(OC)c1OC [Compound 187] | – | > 10.6 | > 10.6 | 0.942 to 5.65 | > 10.6 | > 10.6 | > 10.6
CCOc1ccc(Nc2ncnc(Nc3ccc(C)c(O)c3)n2)cc1OCC [Compound 121] | – | < 1.05 | > 11.8 | < 1.05 | 9.18 to 11.8 | < 1.05 | > 11.8
